From patent US11878973B2, “Bicyclic compounds and their uses” (NOVARTIS AG, priority 2021, dated 2024) come the findings set out here.

Structures are written as SMILES. Read-outs that look alike come from different tables or passages of the source.

One assay deals with WRN helicase (Homo sapiens (Human), UniProt Q14191). As to the kind of experiment: In vitro enzymatic activity assay on WRN helicase (DNA dependent ATPase assay, ADP-Glo). The assay is classed as biochemical. To be noted: geometric means of at least 2 determinations; read-out: WRN ATPase Activity (IC50). The essentials:
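The WRN helicase core (aa N517-P1238), 10 nM, hydrolysed 300 µM ATP in the presence of 0.2 nM FLAP26 DNA (Tris pH 7.5, 2 mM MgCl2, 50 mM NaCl) for 30 min at room temperature. ADP formed was quantified by ADP-Glo luminescence.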

In the next assay the test system is SW48 cells. As to the kind of experiment: Proliferation assay SW48 (CellTiterGlo, 96 hours).
In the next assay the test system is DLD1-WRN-KO cells. Put plainly: Proliferation assay DLD1-WRN-KO (CellTiterGlo, 96 hours; off-target effects). To be noted: read-out: Proliferation Assay DLD1-WRN-KO (GI50).
The mark [1] stands for this setting: read-out: Proliferation Assay SW48 (GI50), SW48 cell line, geometric means of at least 2 determinations.
Where [2] appears, read: DLD1-WRN-KO cell line, geometric means of at least 2 determinations.
Where [3] appears, read: Homo sapiens, SW48, read-out: Proliferation Assay SW48 (GI50).

Sequence of WRN helicase (Q14191 517-1238): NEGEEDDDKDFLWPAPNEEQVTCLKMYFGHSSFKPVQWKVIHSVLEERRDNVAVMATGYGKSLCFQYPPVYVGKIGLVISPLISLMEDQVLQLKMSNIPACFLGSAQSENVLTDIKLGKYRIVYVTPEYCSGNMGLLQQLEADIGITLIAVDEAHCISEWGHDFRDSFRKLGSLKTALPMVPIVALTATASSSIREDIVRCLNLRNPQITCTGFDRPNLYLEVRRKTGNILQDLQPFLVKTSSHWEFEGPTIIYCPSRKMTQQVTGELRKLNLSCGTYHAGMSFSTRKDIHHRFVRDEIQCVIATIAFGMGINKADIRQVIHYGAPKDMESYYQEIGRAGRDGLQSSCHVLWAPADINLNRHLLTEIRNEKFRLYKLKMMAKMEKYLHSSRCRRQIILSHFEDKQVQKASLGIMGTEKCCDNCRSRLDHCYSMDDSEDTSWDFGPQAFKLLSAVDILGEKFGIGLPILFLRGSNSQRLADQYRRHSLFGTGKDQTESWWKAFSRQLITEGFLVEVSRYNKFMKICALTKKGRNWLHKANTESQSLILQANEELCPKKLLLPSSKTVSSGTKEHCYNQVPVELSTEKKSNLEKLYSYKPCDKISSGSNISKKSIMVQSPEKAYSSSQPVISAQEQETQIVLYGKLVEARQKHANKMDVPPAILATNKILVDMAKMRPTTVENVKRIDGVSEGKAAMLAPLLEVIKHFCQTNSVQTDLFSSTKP

In the case of `CCc1c(N2CCN(C(=O)c3ncccc3O)CC2)c(=O)n2nc(C3=CC[C@H](OC)CC3)nc2n1CC(=O)Nc1ccc(C(F)(F)F)nc1Cl` (single isomer, unassigned) [Example 25b, ((R)—N-(2-chloro-6-(trifluoromethyl)pyridin-3-yl)-2-(5-ethyl-6-(4-(3-hydroxypicolinoyl)piperazin-1-yl)-2-(4-methoxycyclohex-1-en-1-yl)-7-oxo-[1,2,4]triazolo[1,5-a]pyrimidin-4(7H)-yl)acetamide) or ((S)—N-(2-chloro-6-(trifluoromethyl)pyridin-3-yl)-2-(5-ethyl-6-(4-(3-hydroxypicolinoyl)piperazin-1-yl)-2-(4-methoxycyclohex-1-en-1-yl)-7-oxo-[1,2,4]triazolo[1,5-a]pyrimidin-4(7H)-yl)acetamide)], the concentration for half-maximal inhibition (IC50) on WRN helicase is 100 nM. Further, the GI50 in the assay with SW48 cells (setting [1]) was 50 nM; in the assay with DLD1-WRN-KO cells (setting [2]) it was more than 10000 nM.
Consider `CCc1c(N2CCN(C(=O)c3ncccc3O)CC2)c(=O)n2nc(C3=COCCO3)nc2n1CC(=O)Nc1ccc(C(F)(F)F)cc1C` [Example 113, 2-(2-(5,6-dihydro-1,4-dioxin-2-yl)-5-ethyl-6-(4-(3-hydroxypicolinoyl)piperazin-1-yl)-7-oxo-[1,2,4]triazolo[1,5-a]pyrimidin-4(7H)-yl)-N-(2-methyl-4-(trifluoromethyl)phenyl)acetamide], for which the concentration for half-maximal inhibition (IC50) at WRN helicase came out at 40 nM. Also, the GI50 was 120 nM in the assay on SW48 cells (setting [3]) and more than 10000 nM in the assay with DLD1-WRN-KO cells (Homo sapiens).
As to `CCc1c(N2CCN(C(=O)c3ncccc3O)CC2)c(=O)n2nc(C3=CC[C@H](OC)CC3)nc2n1CC(=O)Nc1ccc(C(F)(F)F)cc1C` (single isomer, unassigned) [Example 80b, ((R)-2-(5-ethyl-6-(4-(3-hydroxypicolinoyl)piperazin-1-yl)-2-(4-methoxycyclohex-1-en-1-yl)-7-oxo-[1,2,4]triazolo[1,5-a]pyrimidin-4(7H)-yl)-N-(2-methyl-4-(trifluoromethyl)phenyl)acetamide) or ((S)-2-(5-ethyl-6-(4-(3-hydroxypicolinoyl)piperazin-1-yl)-2-(4-methoxycyclohex-1-en-1-yl)-7-oxo-[1,2,4]triazolo[1,5-a]pyrimidin-4(7H)-yl)-N-(2-methyl-4-(trifluoromethyl)phenyl)acetamide)], the IC50 at WRN helicase was determined as 80 nM. Also, the GI50 is 60 nM with SW48 cells (setting [1]) and more than 10000 nM in the assay on DLD1-WRN-KO cells (setting [2]).
`CCc1c(N2CCN(C(=O)c3ncccc3O)CC2)c(=O)n2nc(N3CCOCC3)nc2n1CC(=O)Nc1ccc(C(F)(F)F)nc1Cl` [Example 10, N-(2-chloro-6-(trifluoromethyl)pyridin-3-yl)-2-(5-ethyl-6-(4-(3-hydroxypicolinoyl)piperazin-1-yl)-2-morpholino-7-oxo-[1,2,4]triazolo[1,5-a]pyrimidin-4(7H)-yl)acetamide]: the IC50 on WRN helicase was 250 nM. Besides, the values for the GI50 in the assay on SW48 cells (setting [3]) and in the assay with DLD1-WRN-KO cells (Homo sapiens) were 290 nM and 9900 nM, respectively.
On to `CCc1c(N2CCN(C(=O)c3ncccc3O)[C@H](C)C2)c(=O)n2nc(C3=CCOCC3)nc2n1CC(=O)Nc1ccc(C(F)(F)F)cc1` [Example 71, (R)-2-(2-(3,6-dihydro-2H-pyran-4-yl)-5-ethyl-6-(4-(3-hydroxypicolinoyl)-3-methylpiperazin-1-yl)-7-oxo-[1,2,4]triazolo[1,5-a]pyrimidin-4(7H)-yl)-N-(4-(trifluoromethyl)phenyl)acetamide], for which, at WRN helicase, the IC50 amounted to 70 nM. The GI50 with SW48 cells (setting [3]) was 60 nM; with DLD1-WRN-KO cells (Homo sapiens) it was more than 10000 nM.
On the same counts, the results for `CCc1c(N2CCN(C(=O)c3nccc(Cl)c3O)CC2)c(=O)n2nc(C3=CCCCO3)nc2n1CC(=O)Nc1ccc(C(F)(F)F)nc1Cl` [Example 30, 2-(6-(4-(4-chloro-3-hydroxypicolinoyl)piperazin-1-yl)-2-(3,4-dihydro-2H-pyran-6-yl)-5-ethyl-7-oxo-[1,2,4]triazolo[1,5-a]pyrimidin-4(7H)-yl)-N-(2-chloro-6-(trifluoromethyl)pyridin-3-yl)acetamide] are 140 nM, 160 nM and more than 10000 nM.
`CCc1c(N2CCN(C(=O)c3ncc(C)c(F)c3O)CC2)c(=O)n2nc(C3=CCOCC3)nc2n1CC(=O)Nc1ccc(C(F)(F)F)cc1Cl` [Example 97, N-(2-chloro-4-(trifluoromethyl)phenyl)-2-(2-(3,6-dihydro-2H-pyran-4-yl)-5-ethyl-6-(4-(4-fluoro-3-hydroxy-5-methylpicolinoyl)piperazin-1-yl)-7-oxo-[1,2,4]triazolo[1,5-a]pyrimidin-4(7H)-yl)acetamide]: at WRN helicase, the IC50 was 80 nM. Also, the GI50 in the assay with SW48 cells (setting [3]) was 70 nM; in the assay with DLD1-WRN-KO cells (Homo sapiens) it was more than 10000 nM.
`CCc1c(N2CCN(C(=O)c3nc(C)ncc3O)CC2)c(=O)n2nc(C3=CCOCC3)nc2n1CC(=O)Nc1ccc(C(F)(F)F)cc1C` [Example 68, 2-(2-(3,6-dihydro-2H-pyran-4-yl)-5-ethyl-6-(4-(5-hydroxy-2-methylpyrimidine-4-carbonyl)piperazin-1-yl)-7-oxo-[1,2,4]triazolo[1,5-a]pyrimidin-4(7H)-yl)-N-(2-methyl-4-(trifluoromethyl)phenyl)acetamide]: on WRN helicase, the half-maximal inhibitory concentration (IC50) was 120 nM. The figures for the GI50 in the assay on SW48 cells (setting [3]) and in the assay on DLD1-WRN-KO cells (Homo sapiens) were 270 nM and more than 10000 nM, respectively.
The like results for `CCc1c(N2CCN(C(=O)c3nccc(Cl)c3O)CC2)c(=O)n2nc(C3=CCOCC3)nc2n1CC(=O)Nc1cc(F)c(C(F)(F)F)cc1C` [Example 95, 2-(6-(4-(4-chloro-3-hydroxypicolinoyl)piperazin-1-yl)-2-(3,6-dihydro-2H-pyran-4-yl)-5-ethyl-7-oxo-[1,2,4]triazolo[1,5-a]pyrimidin-4(7H)-yl)-N-(5-fluoro-2-methyl-4-(trifluoromethyl)phenyl)acetamide] were, in that order, 50 nM, 60 nM and more than 10000 nM.
Turning to `CCc1c(N2CCN(C(=O)c3ncccc3O)CC2)c(=O)n2nc(N3CCC[C@@H](F)C3)nc2n1CC(=O)Nc1ccc(C(F)(F)F)cc1C` [Example 14a, (R)-2-(5-ethyl-2-(3-fluoropiperidin-1-yl)-6-(4-(3-hydroxypicolinoyl)piperazin-1-yl)-7-oxo-[1,2,4]triazolo[1,5-a]pyrimidin-4(7H)-yl)-N-(2-methyl-4-(trifluoromethyl)phenyl)acetamide], the concentration for half-maximal inhibition (IC50) on WRN helicase stood at 80 nM. Besides, the GI50 was 370 nM in the assay with SW48 cells (setting [3]) and more than 10000 nM in the assay with DLD1-WRN-KO cells (Homo sapiens).
`CCc1c(N2CCN(C(=O)c3ncccc3O)CC2)c(=O)n2nc(C3=CCOCC3)nc2n1CC(=O)Nc1ccc(C(F)(F)F)cc1` [Example 72, 2-(2-(3,6-dihydro-2H-pyran-4-yl)-5-ethyl-6-(4-(3-hydroxypicolinoyl)piperazin-1-yl)-7-oxo-[1,2,4]triazolo[1,5-a]pyrimidin-4(7H)-yl)-N-(4-(trifluoromethyl)phenyl)acetamide]: the IC50 at WRN helicase came to 50 nM. Further, the values for the GI50 with SW48 cells (setting [3]) and in the assay on DLD1-WRN-KO cells (Homo sapiens) were 50 nM and more than 10000 nM, respectively.
As for `CCc1c(N2CCN(C(=O)c3nccc(Cl)c3O)CC2)c(=O)n2nc(N3CCOCC3)nc2n1CC(=O)Nc1ccc(C(F)(F)F)cc1C` [Example 9, 2-(6-(4-(4-chloro-3-hydroxypicolinoyl)piperazin-1-yl)-5-ethyl-2-morpholino-7-oxo-[1,2,4]triazolo[1,5-a]pyrimidin-4(7H)-yl)-N-(2-methyl-4-(trifluoromethyl)phenyl)acetamide], the IC50 at WRN helicase was 60 nM. In addition, the GI50 is 350 nM in the assay on SW48 cells (setting [3]) and more than 10000 nM in the assay with DLD1-WRN-KO cells (Homo sapiens).
As to `CCc1c(N2CCN(C(=O)c3ncccc3O)CC2)c(=O)n2nc(C3=COCCO3)nc2n1CC(=O)Nc1ccc(C(F)(F)F)nc1Cl` [Example 27, N-(2-chloro-6-(trifluoromethyl)pyridin-3-yl)-2-(2-(5,6-dihydro-1,4-dioxin-2-yl)-5-ethyl-6-(4-(3-hydroxypicolinoyl)piperazin-1-yl)-7-oxo-[1,2,4]triazolo[1,5-a]pyrimidin-4(7H)-yl)acetamide], the half-inhibitory concentration (IC50) on WRN helicase was 130 nM. Also, the figures for the GI50 with SW48 cells (setting [3]) and with DLD1-WRN-KO cells (Homo sapiens) were 270 nM and more than 10000 nM, respectively.
The like results for `CCc1c(N2CCN(C(=O)c3ncccc3O)CC2)c(=O)n2nc(C3=CCOCC3)nc2n1CC(=O)Nc1cc(F)c(C(F)(F)F)cc1Cl` [Example 116, N-(2-chloro-5-fluoro-4-(trifluoromethyl)phenyl)-2-(2-(3,6-dihydro-2H-pyran-4-yl)-5-ethyl-6-(4-(3-hydroxypicolinoyl)piperazin-1-yl)-7-oxo-[1,2,4]triazolo[1,5-a]pyrimidin-4(7H)-yl)acetamide] were, in that order, 60 nM, 80 nM and 6600 nM.
On to `CCc1c(N2CCN(C(=O)c3ncccc3O)CC2)c(=O)n2nc(N3CCCC(F)C3)nc2n1CC(=O)Nc1ccc(C(F)(F)F)cc1Cl` (racemic) [Example 15, rac-N-(2-chloro-4-(trifluoromethyl)phenyl)-2-(5-ethyl-2-(3-fluoropiperidin-1-yl)-6-(4-(3-hydroxypicolinoyl)piperazin-1-yl)-7-oxo-[1,2,4]triazolo[1,5-a]pyrimidin-4(7H)-yl)acetamide], for which, on WRN helicase, the IC50 was 110 nM. In addition, the results for the GI50 in the assay on SW48 cells (setting [3]) and with DLD1-WRN-KO cells (Homo sapiens) were 440 nM and more than 10000 nM, respectively.
The like results for `CCc1c(N2CCN(C(=O)c3ncccc3O)CC2)c(=O)n2nc(N3CCOCC3)nc2n1CC(=O)Nc1ccc(C(F)(F)F)cc1C` [Example 8, 2-(5-ethyl-6-(4-(3-hydroxypicolinoyl)piperazin-1-yl)-2-morpholino-7-oxo-[1,2,4]triazolo[1,5-a]pyrimidin-4(7H)-yl)-N-(2-methyl-4-(trifluoromethyl)phenyl)acetamide] were, in that order, 80 nM, 210 nM and more than 10000 nM.
